Measured values taken from US20190358348A1, “CHARACTERIZATION OF BIOLOGICAL TISSUES AT A CELLULAR LEVEL USING RED AND FAR-RED FLUORESCENT DYES” (IGR-Institut Gustave Roussy, priority 2012, published 2019).
Where two headings read alike, the source gives them in different places.

Experiments:
[1] = cited from earlier work
[2] = tested on: popliteal and/or inguinal lymph node
[3] = macroscopic guidance of diagnostic procedures

Structure (SMILES) | side effects for the patients [1, 3] | other results
CC1(C)C(/C=C/C=C/C=C/C=C2\N(CCCCS(=O)(=O)O)c3ccc4ccccc4c3C2(C)C)=[N+](CCCCS(=O)(=O)[O-])c2ccc3ccccc3c21 [ICG, Indocyanine green] | very limited side effects | 
Cc1cc2nc3ccc(N(C)C)cc3[s+]c2cc1N.[Cl-] [TB, Toluidine Blue] | very limited side effects | time to macroscopically visible diffusion of dye to the lymph node ([2]; sub-cutaneous injection, 100 μL into footpad): 5 min
CCN(CC)c1ccc(C(=C2C=CC(=[N+](CC)CC)C=C2)c2cc(O)c(S(=O)(=O)[O-])cc2S(=O)(=O)[O-])cc1.[Na+] [PB, sodium patent blue V] |  | side effects for the patients ([1]; human, in vivo): very limited side effects; time to macroscopically visible diffusion of dye to the lymph node ([2]; rat, in vivo): 5 min
Cc1cc(O)c2c(=O)c3c(O)cc(O)c4c5c(O)cc(O)c6c(=O)c7c(O)cc(C)c8c1c2c(c34)c(c78)c65 [hypericin, Hypericin] | very limited side effects | 
CN(C)c1ccc2nc3ccc(=[N+](C)C)cc-3sc2c1 [MB, Methylene blue] | very limited side effects | time to macroscopically visible diffusion of dye to the lymph node ([2]; male, Wistar, rat, in vivo): 5 min
